Measured values published in US20230183243A1, “HETEROARYL DERIVATIVES AND PHARMACEUTICAL COMPOSITION COMPRISING SAME AS ACTIVE INGREDIENT” (VORONOI INC., priority 2019, published 2023).
Like-named read-outs stand apart in the source and are kept apart here.

Assays:
A549 = test: Cell proliferation inhibition, carcinomas other than TNBC; type: cell-based
Protocol: (§1) To check an ability to inhibit the growth of (MDA-MB-231) cells in two triple-negative breast cancer cell lines, a test was performed, as follows. Cells were seeded in 180 μL of a culture broth at a density of 2,000 to 3,000 cells/well in a white clear bottom 96-well plate (Corning) according to the growth ability of each cell, and then cultured for 24 hours under conditions of 5% CO2 and 37° C. Thereafter, the compound was prepared by diluting a 10 mM stock solution three-fold with 100% DMSO at a total of 12 concentrations so that a peak concentration of the compound was in a range of 10 mM to 0.05 μM, and the diluted compound was then diluted in each cell culture medium so that a final concentration of the compound was in a range of 100 μM to 0.5 nM. 20 μL of a diluted solution diluted with a medium was added to the cell solution in which cells were seeded in the 96-well plate on the previous day so that a final concentration of the diluted solution was in a range of 10 μM to 0.05 nM. Each of the cells was cultured for 5 days. To check cell viability, a mixture provided in a CellTiter-Glo® Luminescent Cell Viability Assay Kit (Promega) was added to each of the cultured cell media, and cultured for another 10 minutes under a condition of 37° C. Then, a degree of luminescence (fluorescence) was measured. A degree of inhibition of the cell growth according to the treatment concentration of each of the compounds was calculated based on the fluorescence of the solvent control cells which were not treated with the compound. In this case, the concentration of each of the compounds inhibiting 50% of the cell growth was determined to be a GI50 (nM) value, and calculated using Prism (Version 7.01; GraphPad) software.
(§2) Next, the activities of the Example compounds against various types of carcinomas other than the TNBC were evaluated in a similar manner as described above. In the following table, the following active value range (GI50 (nM)) was used to evaluate cell proliferation inhibitory activity.

HCT116 = test: as above; type: cell-based
Protocol: as §1, §2

DU145 = test: as above; type: cell-based
Protocol: as §1, §2

BxPC3 = test: as above; type: cell-based
Protocol: as §1, §2

MDA-MB-231 cells = test: Inhibition of proliferation of triple-negative breast cancer cells, CellTiter-Glo; type: cell-based; details: Homo sapiens, 120 h; MDA-MB-231, cultured for 5 days
In short: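 MDA-MB-231 cells pre-cultured 24 h (5% CO2, 37 °C), then exposed to compound for 5 days at 12 three-fold dilutions, final 10 μM to 0.05 nM. Viability read by CellTiter-Glo luminescence after 10 min at 37 °C; growth inhibition calculated relative to untreated solvent-control cells.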

TTK = molecular target: T1, TTK (Homo sapiens, UniProt P33981); test: TTK enzyme activity, ADP-Glo kinase assay; type: biochemical; parameters: purchased SignalChem T20-10G; details: purified human TTK, ATP 10 μM, 25° C., 2 hours
T1 sequence (P33981 1-857): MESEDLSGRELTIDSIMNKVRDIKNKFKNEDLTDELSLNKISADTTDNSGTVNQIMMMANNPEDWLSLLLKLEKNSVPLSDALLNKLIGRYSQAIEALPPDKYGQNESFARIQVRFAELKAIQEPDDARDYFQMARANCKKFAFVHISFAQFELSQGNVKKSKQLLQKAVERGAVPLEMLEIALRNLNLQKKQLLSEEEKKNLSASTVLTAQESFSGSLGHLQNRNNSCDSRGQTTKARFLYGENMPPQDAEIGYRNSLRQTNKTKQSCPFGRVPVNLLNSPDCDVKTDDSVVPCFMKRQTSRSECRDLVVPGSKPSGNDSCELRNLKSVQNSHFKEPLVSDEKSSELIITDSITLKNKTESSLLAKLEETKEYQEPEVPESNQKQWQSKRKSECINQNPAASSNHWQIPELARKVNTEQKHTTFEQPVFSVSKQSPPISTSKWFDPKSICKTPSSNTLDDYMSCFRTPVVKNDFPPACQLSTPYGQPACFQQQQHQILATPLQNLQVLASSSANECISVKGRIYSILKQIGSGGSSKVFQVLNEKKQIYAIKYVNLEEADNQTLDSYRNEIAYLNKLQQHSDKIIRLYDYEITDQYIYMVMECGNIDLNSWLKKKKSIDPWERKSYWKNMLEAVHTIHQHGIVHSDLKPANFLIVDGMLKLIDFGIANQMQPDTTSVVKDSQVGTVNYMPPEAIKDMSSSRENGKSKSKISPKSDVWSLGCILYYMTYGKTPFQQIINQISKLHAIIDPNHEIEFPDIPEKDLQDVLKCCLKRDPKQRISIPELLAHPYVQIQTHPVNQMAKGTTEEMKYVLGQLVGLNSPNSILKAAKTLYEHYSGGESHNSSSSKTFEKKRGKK
In short: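 Purified human TTK (25 ng) incubated with 10 μM ATP and substrate (0.2 μg) for 2 h at 25 °C in Tris-HCl pH 7.4, MgCl2, BSA, DTT buffer. ADP formation read by ADP-Glo; inhibition calculated against untreated solvent control.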

SHP-77 = test: Inhibition of proliferation of small cell lung cancer cells, CellTiter-Glo; type: cell-based; details: Homo sapiens, SHP77, 120 h; SHP-77, cultured for 5 days
In short: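 SHP-77 cells at 2,000–3,000 cells/well, cultured 24 h at 37° C, 5% CO2, then given 12 threefold compound dilutions, final 10 μM to 0.05 nM, for 5 days. Viability by CellTiter-Glo luminescence relative to solvent control. GI50 from concentration–response.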

SMILES	GI50 (A549; Homo sapiens)	GI50 (HCT116; Homo sapiens, HCT-116)	GI50 (DU145; Homo sapiens, DU-145)	GI50 (BxPC3; Homo sapiens, BXPC-3)	GI50 (MDA-MB-231 cells)	IC50 (TTK)	GI50 (SHP-77)	GI50 (A549)	GI50 (HCT116; HCT116)	GI50 (DU145; DU145)	GI50 (BxPC3; BxPC3)
COc1cc(N2CCCC2=O)ccc1Nc1nc(NC2CCCCC2)c2c(C(F)(F)F)c[nH]c2n1 [Example 53, 1-(4-((4-(cyclohexylamino)-5-(trifluoromethy1)-7H-pyrrolo[2,3-d]pyrimidin-2-yl)amino)-3-methoxyphenyl) pyrrolidin-2-one]	0.1 to 1 µM	0.1 to 1 µM	0.1 to 1 µM	0.1 to 1 µM	0.1 to 1 µM	< 0.05 µM	–	–	–	–	–
COc1cc(N2CCCC2=O)ccc1Nc1nc(NC2CCCC2)c2c(C(F)(F)F)c[nH]c2n1 [Example 52]	0.1 to 1 µM	0.1 to 1 µM	0.1 to 1 µM	0.1 to 1 µM	–	–	–	–	–	–	–
COc1cc(N2CCCC2=O)ccc1Nc1nc(NC2CCCC2)c2cc[nH]c2n1 [Example 47, 1-(4-((4-(cyclopentylamino)-7H-pyrrolo[2,3-d]pyrimidin-2-yl)amino)-3-methoxyphenyl) pyrrolidin-2-one]	< 0.1 µM	< 0.1 µM	< 0.1 µM	< 0.1 µM	–	–	–	–	–	–	–
COc1cc(N2CCCC2=O)ccc1Nc1nc(NC2CCCCC2)c2cc[nH]c2n1 [Example 48]	–	–	–	–	–	–	–	< 0.1 µM	< 0.1 µM	< 0.1 µM	< 0.1 µM
CNc1nc(Nc2ccc(N3CCCC3=O)cc2OC)nc2[nH]cc(C#N)c12 [Example 54, 2-((2-methoxy-4-(2-oxopyrrolidin-1-yl)phenyl)amino)-4-(methylamino)-7H-pyrrolo[2,3-d] pyrimidine-5-carbonitrile]	0.1 to 1 µM	0.1 to 1 µM	0.1 to 1 µM	0.1 to 1 µM	0.1 to 1 µM	0.05 to 0.2 µM	–	–	–	–	–

Now from value to compound:

GI50 (A549; Homo sapiens)	GI50 (HCT116; Homo sapiens, HCT-116)	GI50 (DU145; Homo sapiens, DU-145)	GI50 (BxPC3; Homo sapiens, BXPC-3)	GI50 (MDA-MB-231 cells)	IC50 (TTK)	GI50 (SHP-77)	GI50 (A549)	GI50 (HCT116; HCT116)	GI50 (DU145; DU145)	GI50 (BxPC3; BxPC3)	SMILES
0.1 to 1 µM	0.1 to 1 µM	0.1 to 1 µM	0.1 to 1 µM	–	–	–	–	–	–	–	COc1cc(N2CCCC2=O)ccc1Nc1cc(NC2CCCCC2)c2c(C(F)(F)F)c[nH]c2n1 [Example 62, 1-(4-((4-(cyclohexylamino)-3-(trifluoromethyl)-1H-pyrrolo[2,3-b]pyridin-6-yl)amino)-3-methoxyphenyl) pyrrolidin-2-one]
< 0.1 µM	< 0.1 µM	< 0.1 µM	< 0.1 µM	< 0.1 µM	< 0.05 µM	< 0.1 µM	–	–	–	–	COc1cc(N2CCCC2=O)ccc1Nc1nc(NC2CCCCC2)c2c(C#N)c[nH]c2n1 [Example 56, 4-(cyclohexylamino)-2-((2-methoxy-4-(2-oxopyrrolidin-1-yl)phenyl)amino)-7H-pyrrolo[2,3-d] pyrimidine-5-carbonitrile]
< 0.1 µM	< 0.1 µM	< 0.1 µM	< 0.1 µM	0.1 to 1 µM	< 0.05 µM	–	–	–	–	–	COc1cc(N2CCCC2=O)ccc1Nc1cc(NC2CCCC2)c2c(C#N)c[nH]c2n1 [Example 63, 4-(cyclopentylamino)-6-((2-methoxy-4-(2-oxopyrrolidin-1-yl)phenyl)amino)-1H-pyrrolo[2,3-b] pyridine-3-carbonitrile]
< 0.1 µM	< 0.1 µM	< 0.1 µM	< 0.1 µM	< 0.1 µM	< 0.05 µM	–	–	–	–	–	COc1cc(N2CCCC2=O)ccc1Nc1nc(NC2CCCC2)c2c(C#N)c[nH]c2n1 [Example 55, 4-(cyclopentylamino)-2-((2-methoxy-4-(2-oxopyrrolidin-1-yl)phenyl)amino)-7H-pyrrolo[2,3-d] pyrimidine-5-carbonitrile]
